From ChEMBL document CHEMBL4354805, “Discovery of MK-8719, a Potent O-GlcNAcase Inhibitor as a Potential Treatment for Tauopathies” (J Med Chem, 2019)

How the values were obtained:
Rattus norvegicus [1] = assay: Elevation of O-protein in rat brain at 3 mg/kg, po measured after 24 hrs relative to control; format: functional
[2] = Oral bioavailability in Wistar Han rat at 3 mg/kg; format: ADME, organism-based; conditions: in vivo
Protein O-GlcNAcase [3] = target: T1, Protein O-GlcNAcase (Homo sapiens, UniProt O60502); assay: Inhibition of recombinant human OGA
T1 sequence (O60502 whole entry): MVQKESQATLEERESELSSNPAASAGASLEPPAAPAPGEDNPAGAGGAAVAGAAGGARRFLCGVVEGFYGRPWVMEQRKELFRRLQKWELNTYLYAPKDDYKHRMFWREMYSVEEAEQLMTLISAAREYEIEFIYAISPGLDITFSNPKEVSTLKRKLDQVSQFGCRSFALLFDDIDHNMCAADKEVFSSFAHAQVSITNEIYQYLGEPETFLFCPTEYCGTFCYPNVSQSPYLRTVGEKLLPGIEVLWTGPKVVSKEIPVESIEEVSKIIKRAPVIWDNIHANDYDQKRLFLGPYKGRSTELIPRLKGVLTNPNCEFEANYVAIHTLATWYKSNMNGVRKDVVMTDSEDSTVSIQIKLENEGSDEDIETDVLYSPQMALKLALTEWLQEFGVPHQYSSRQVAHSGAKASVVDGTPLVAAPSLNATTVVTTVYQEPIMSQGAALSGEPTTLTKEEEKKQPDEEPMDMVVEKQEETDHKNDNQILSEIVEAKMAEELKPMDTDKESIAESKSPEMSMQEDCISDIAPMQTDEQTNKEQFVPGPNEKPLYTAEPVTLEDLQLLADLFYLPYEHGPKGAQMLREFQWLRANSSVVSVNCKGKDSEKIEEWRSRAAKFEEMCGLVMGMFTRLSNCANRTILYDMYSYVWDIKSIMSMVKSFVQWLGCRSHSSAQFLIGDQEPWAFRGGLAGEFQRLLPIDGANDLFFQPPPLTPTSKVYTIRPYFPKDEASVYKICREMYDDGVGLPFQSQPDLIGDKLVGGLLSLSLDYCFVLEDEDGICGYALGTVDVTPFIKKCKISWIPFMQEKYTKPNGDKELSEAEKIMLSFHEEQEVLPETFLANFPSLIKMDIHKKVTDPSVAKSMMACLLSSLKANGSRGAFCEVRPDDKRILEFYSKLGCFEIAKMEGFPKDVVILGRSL

Rattus norvegicus [4] = assay: Increase in O-protein AUC in rat brain at 3 mg/kg, po measured upto 24 hrs; format: ADME, organism-based; conditions: in vivo
[5] = Tmax in rat brain at 3 mg/kg, po measured upto 24 hrs; format: ADME, organism-based
[6] = Drug uptake in rat brain at 3 mg/kg, po measured after 8 hrs; format: ADME, organism-based; conditions: in vivo
Rattus norvegicus [7] = assay: Elevation of O-protein in rat brain at 3 mg/kg, po measured after 8 hrs relative to control; format: functional
Protein O-GlcNAcase [8] = target: T2, Protein O-GlcNAcase (Rattus norvegicus, UniProt Q8VIJ5); assay: Inhibition of OGA in rat PC12 cells assessed as OGlcNAcylated protein level incubated for 24 hrs by ELISA; format: cell-based
T2 sequence (Q8VIJ5 whole entry): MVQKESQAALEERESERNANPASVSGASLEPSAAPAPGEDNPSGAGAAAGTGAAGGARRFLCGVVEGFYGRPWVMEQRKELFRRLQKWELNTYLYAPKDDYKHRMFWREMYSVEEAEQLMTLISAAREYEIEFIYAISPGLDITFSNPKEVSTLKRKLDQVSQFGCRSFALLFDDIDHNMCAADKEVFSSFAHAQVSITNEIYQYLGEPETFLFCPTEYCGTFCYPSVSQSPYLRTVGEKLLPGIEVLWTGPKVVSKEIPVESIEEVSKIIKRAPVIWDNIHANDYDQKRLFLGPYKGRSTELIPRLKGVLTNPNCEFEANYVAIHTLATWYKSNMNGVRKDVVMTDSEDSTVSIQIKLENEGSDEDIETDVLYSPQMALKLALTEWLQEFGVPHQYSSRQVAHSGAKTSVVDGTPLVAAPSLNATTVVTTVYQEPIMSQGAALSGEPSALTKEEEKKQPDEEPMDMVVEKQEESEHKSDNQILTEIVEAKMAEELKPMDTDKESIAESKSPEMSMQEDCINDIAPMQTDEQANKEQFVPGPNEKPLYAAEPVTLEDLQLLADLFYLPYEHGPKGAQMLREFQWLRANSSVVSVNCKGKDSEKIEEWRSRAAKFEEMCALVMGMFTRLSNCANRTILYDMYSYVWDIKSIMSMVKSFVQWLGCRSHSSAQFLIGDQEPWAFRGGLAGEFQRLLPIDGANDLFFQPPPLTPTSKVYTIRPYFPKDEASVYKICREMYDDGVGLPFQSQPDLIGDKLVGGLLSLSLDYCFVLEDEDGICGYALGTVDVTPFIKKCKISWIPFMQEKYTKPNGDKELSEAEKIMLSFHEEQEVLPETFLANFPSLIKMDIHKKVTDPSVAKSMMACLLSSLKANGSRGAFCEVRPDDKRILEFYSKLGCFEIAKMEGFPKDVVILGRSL

[9] = Fraction unbound in human plasma at 2.5 uM by equilibrium dialysis; format: ADME, cell-free
[10] = AUC (0 to 24 hrs) in rat brain at 3 mg/kg, po measured upto 24 hrs; format: ADME, organism-based; set-up: dose 3 mg/kg, time < 24 hr, route oral; conditions: in vivo
[11] = target: T3, Beta-hexosaminidase subunit beta (Homo sapiens, UniProt P07686); assay: Inhibition of human beta hexosaminidase assessed as inhibitory constant using 4-methylumbelliferyl N-acetyl-beta-D-glucosaminide dihydrate as substrate measured every 60 sec for 45 mins by fluorescence spectrophotometry
T3 sequence (P07686 whole entry): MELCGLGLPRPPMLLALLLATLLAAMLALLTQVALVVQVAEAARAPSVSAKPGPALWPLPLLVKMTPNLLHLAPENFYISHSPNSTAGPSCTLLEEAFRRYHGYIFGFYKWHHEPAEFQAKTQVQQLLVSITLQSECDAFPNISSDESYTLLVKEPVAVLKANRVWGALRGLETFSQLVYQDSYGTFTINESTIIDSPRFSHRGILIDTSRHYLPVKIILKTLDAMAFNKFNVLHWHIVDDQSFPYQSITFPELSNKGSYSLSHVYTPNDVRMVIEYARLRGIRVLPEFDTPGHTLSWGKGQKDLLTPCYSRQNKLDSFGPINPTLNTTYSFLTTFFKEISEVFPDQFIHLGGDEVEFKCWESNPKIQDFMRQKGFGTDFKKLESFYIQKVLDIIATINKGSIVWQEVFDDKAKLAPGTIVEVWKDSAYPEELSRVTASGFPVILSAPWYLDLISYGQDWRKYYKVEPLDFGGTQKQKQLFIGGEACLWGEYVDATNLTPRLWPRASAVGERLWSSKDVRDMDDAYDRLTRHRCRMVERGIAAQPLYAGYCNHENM

[12] = Ratio of drug uptake in rat brain to plasma at 3 mg/kg, po measured after 24 hrs; format: ADME, organism-based; conditions: read-out: BPR
[13] = Drug uptake in rat brain at 3 mg/kg, po measured after 24 hrs; format: ADME, organism-based; conditions: in vivo
[14] = AUCN in Wistar Han rat at 3 mg/kg, po; format: ADME, organism-based; conditions: in vivo
[15] = Half life in Wistar Han rat at 1 mg/kg, iv; format: ADME, organism-based; conditions: in vivo
[16] = Volume of distribution at steady state in Wistar Han rat at 1 mg/kg, iv or 3 mg/kg, po; format: ADME, organism-based; conditions: in vivo, read-out: Vdss
[17] = Ratio of drug uptake in rat brain to plasma at 3 mg/kg, po measured after 8 hrs; format: ADME, organism-based; conditions: read-out: BPR
[18] = Clearance in Wistar Han rat at 1 mg/kg, iv; format: ADME, organism-based; conditions: in vivo
[19] = Fraction unbound in Wistar Han rat plasma at 2.5 uM by equilibrium dialysis; format: ADME, cell-free
[20] = Drug excretion in rat bile at 10 mg/kg, po; format: ADME, organism-based; conditions: read-out: Drug excretion
[21] = Drug excretion in dog at 3 mg/kg, po; format: ADME, organism-based, Canis lupus familiaris; conditions: in vivo, read-out: Drug excretion
[22] = Drug excretion in rat urine at 10 mg/kg, po; format: ADME, organism-based; conditions: read-out: Drug excretion
[23] = Drug excretion in rat cage at 10 mg/kg, po; format: ADME, organism-based; conditions: read-out: Drug excretion
[24] = Drug excretion in dog cage at 3 mg/kg, po; format: ADME, organism-based, Canis lupus familiaris; conditions: read-out: Drug excretion
[25] = Drug excretion in rat at 10 mg/kg, po; format: ADME, organism-based; conditions: in vivo, read-out: Drug excretion
[26] = Drug excretion in dog urine at 3 mg/kg, po; format: ADME, organism-based, Canis lupus familiaris; conditions: read-out: Drug excretion
[27] = Drug excretion in rat feces at 10 mg/kg, po; format: ADME, organism-based; conditions: faeces, read-out: Drug excretion
[28] = Drug excretion in dog bile at 3 mg/kg, po; format: ADME, organism-based, Canis lupus familiaris; conditions: read-out: Drug excretion

## CNC1=N[C@@H]2[C@H](F)[C@H](O)[C@@H](CO)O[C@@H]2S1
Rattus norvegicus [1]
  fold change (FC): 1.45
[2]
  bioavailability: 70.4%
Protein O-GlcNAcase [3]
  Ki: 0.53 nM
Rattus norvegicus [4]
  fold change (FC): 18.44
[5]
  Tmax: 8 h
[6]
  Drug uptake: 0.099 nmol/g
Rattus norvegicus [7]
  fold change (FC): 2.13
Protein O-GlcNAcase [8]
  EC50: 10.6 nM
[9]
  fraction unbound at 2.5 µM: 0.84
[10]
  AUC: 1.963 nM·h/g
[11]
  Ki: > 10 µM
[12]
  Kp at 24 h: ≥ 29.5
[13]
  Drug uptake: 0.074 nmol/g
[14]
  AUC/dose: 1.43 µM·kg·h/mg
[15]
  half-life: 76.2 min
[16]
  Vd: 2 L/kg
[17]
  Kp at 8 h: 1.67
[18]
  clearance: 36.8 mL/min/kg
[19]
  fraction unbound at 2.5 µM: 0.96

## [3H][C@@]1(O)[C@@H](C(F)F)O[C@@H]2SC(NCC)=N[C@@H]2[C@H]1O
[20]
  dose excreted: 17%
[21]
  dose excreted: 88%
[22]
  dose excreted: 75%
[23]
  dose excreted: 3%
[24]
  dose excreted: 1%
[25]
  dose excreted: 96%
[26]
  dose excreted: 79%
[27]
  dose excreted: 0.5%
[28]
  dose excreted: 8%
